The target of the assay is PD-1/PD-L1 (Homo sapiens (Human), UniProt Q9NZQ7). Nature of the assay: PD-1/PD-L1 Homogenous Time-Resolved Fluorescence (HTRF) binding assay. As to conditions: PD-L1-His 10 nM, PD-1-Ig 20 nM; read-out: HTRF IC50.

The structures appear in SMILES notation. *1 amine or outer side, *2 acyl side, *3 side chain or, on linkers, in order; H or OH if unused. Where a SMILES comes first, the peptide text is derived from it. Bridges are numbered along the chain shown (N, C = ends). [ ]: non-standard residue; d: D form. Trp(1-CH2CO) = O=C([C@H](Cc1cn(CC(=O)[*:3])c2ccccc12)N[*:1])[*:2]; X28 = O=C([C@H](CNCc1cc(F)c(F)cc1B(O)O[*:3])N[*:1])[*:2]; Trp(1-CH2COOH) = N[C@@H](Cc1cn(CC(=O)O)c2ccccc12)C(=O)O; X30 = O=C([C@H](CNCc1ccc(B(O)O)cc1C(F)(F)F)N[*:1])[*:2]; X8 = O=C([C@H](CNCc1ccc(B(O)O[*:3])cc1Cl)N[*:1])[*:2]; X1 = Cc1cc(CNC[C@H](N[*:1])C(=O)[*:2])cc(C)c1B(O)O; X11 = COc1ccc(CNCC[C@H](N[*:1])C(=O)[*:2])cc1B(O)O; X10 = COc1ccc(CNC[C@H](N[*:1])C(=O)[*:2])cc1B(O)O; X9 = O=C([C@H](CCNCc1ccc(B(O)O)cc1Cl)N[*:1])[*:2]; Hyp = O=C(O)[C@@H]1C[C@@H](O)CN1; NMeNle = CCCC[C@H](NC)C(=O)O; NMeA = CN[C@@H](C)C(=O)O; Dab = NCC[C@H](N)C(=O)O

Chain of PD-1/PD-L1 (Q9NZQ7 18-239): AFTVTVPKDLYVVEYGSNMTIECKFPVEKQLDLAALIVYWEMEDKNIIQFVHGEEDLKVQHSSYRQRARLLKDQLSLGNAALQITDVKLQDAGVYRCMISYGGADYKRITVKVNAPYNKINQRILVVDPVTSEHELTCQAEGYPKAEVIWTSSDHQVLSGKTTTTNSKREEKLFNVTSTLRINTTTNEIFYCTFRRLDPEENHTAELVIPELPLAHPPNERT

For orientation: IC50 means the midpoint of a concentration-inhibition curve. Turning to `CCCC[C@H]1C(=O)N(C)[C@@H](CCCC)C(=O)N[C@@H](CC(C)C)C(=O)N[C@H](C(=O)NCC(N)=O)CSCC(=O)N[C@@H](Cc2ccc(O)cc2)C(=O)N(C)[C@@H](C)C(=O)N[C@@H](CC(N)=O)C(=O)N2CCC[C@H]2C(=O)N[C@@H](CNCc2ccc(OC)c(B(O)O)c2)C(=O)N[C@@H](CC(C)C)C(=O)N2C[C@H](O)C[C@H]2C(=O)N[C@@H](Cc2c[nH]c3ccccc23)C(=O)N[C@@H](CCN)C(=O)N[C@@H](Cc2cn(CC(=O)O)c3ccccc23)C(=O)N1C` [Example 1023] ({CH2CO}-Y[NMeA]NP[X10]L[Hyp]W[Dab][Trp(1-CH2COOH)][NMeNle][NMeNle]LCG-NH2; thioether N-14), the IC50 came to 9.7 nM.
The value for `CCCC[C@H]1C(=O)N(C)[C@@H](CCCC)C(=O)N[C@@H](CC(C)C)C(=O)N[C@H](C(=O)NCC(N)=O)CSCC(=O)N[C@@H](Cc2ccc(O)cc2)C(=O)N(C)[C@@H](C)C(=O)N[C@@H](CC(N)=O)C(=O)N2CCC[C@H]2C(=O)N[C@H]2CNCc3cc(F)c(F)cc3B(O)OC(=O)Cn3cc(c4ccccc43)C[C@H](NC(=O)[C@H](CCN)NC(=O)[C@H](Cc3c[nH]c4ccccc34)NC(=O)[C@@H]3C[C@@H](O)CN3C(=O)[C@H](CC(C)C)NC2=O)C(=O)N1C` [Example 1024] ({CH2CO}-Y[NMeA]NP[X28]L[Hyp]W[Dab][Trp(1-CH2CO)][NMeNle][NMeNle]LCG-NH2; ester 5-10; thioether N-14) was 9.4 nM; that for `CCCC[C@H]1C(=O)N(C)[C@@H](CCCC)C(=O)N[C@@H](CC(C)C)C(=O)N[C@H](C(=O)NCC(N)=O)CSCC(=O)N[C@@H](Cc2ccc(O)cc2)C(=O)N(C)[C@@H](C)C(=O)N[C@@H](CC(N)=O)C(=O)N2CCC[C@H]2C(=O)N[C@@H](CNCc2ccc(B(O)O)cc2C(F)(F)F)C(=O)N[C@@H](CC(C)C)C(=O)N2C[C@H](O)C[C@H]2C(=O)N[C@@H](Cc2c[nH]c3ccccc23)C(=O)N[C@@H](CCN)C(=O)N[C@@H](Cc2cn(CC(=O)O)c3ccccc23)C(=O)N1C` [Example 1025] ({CH2CO}-Y[NMeA]NP[X30]L[Hyp]W[Dab][Trp(1-CH2COOH)][NMeNle][NMeNle]LCG-NH2; thioether N-14) was 14 nM.
The value for `CCCC[C@H]1C(=O)N(C)[C@@H](CCCC)C(=O)N[C@@H](CC(C)C)C(=O)N[C@H](C(=O)NCC(N)=O)CSCC(=O)N[C@H]2Cc3ccc(cc3)OB(O)c3ccc(cc3F)CNCC[C@@H]3NC(=O)[C@H](Cc4c[nH]c5ccccc45)NC(=O)[C@@H]4C[C@@H](O)CN4C(=O)[C@H](CC(C)C)NC(=O)[C@H](CNCc4ccc(c(F)c4)B(O)OC(=O)Cn4cc(c5ccccc54)C[C@H](NC3=O)C(=O)N1C)NC(=O)[C@@H]1CCCN1C(=O)[C@H](CC(N)=O)NC(=O)[C@H](C)N(C)C2=O` [Example 1026] was 4 nM; that for `CCCC[C@H]1C(=O)N(C)[C@@H](CCCC)C(=O)N[C@@H](CC(C)C)C(=O)N[C@H](C(=O)NCC(N)=O)CSCC(=O)N[C@@H](Cc2ccc(O)cc2)C(=O)N(C)[C@@H](C)C(=O)N[C@@H](CC(N)=O)C(=O)N2CCC[C@H]2C(=O)N[C@@H](CNCc2cc(C)c(B(O)O)c(C)c2)C(=O)N[C@@H](CC(C)C)C(=O)N2C[C@H](O)C[C@H]2C(=O)N[C@@H](Cc2c[nH]c3ccccc23)C(=O)N[C@@H](CCN)C(=O)N[C@@H](Cc2cn(CC(=O)O)c3ccccc23)C(=O)N1C` [Example 1027] ({CH2CO}-Y[NMeA]NP[X1]L[Hyp]W[Dab][Trp(1-CH2COOH)][NMeNle][NMeNle]LCG-NH2; thioether N-14) was 3.8 nM; that for `CCCC[C@H]1C(=O)N(C)[C@@H](CCCC)C(=O)N[C@@H](CC(C)C)C(=O)N[C@H](C(=O)NCC(N)=O)CSCC(=O)N[C@H]2Cc3ccc(cc3)OB(O)c3ccc(c(F)c3)CNCC[C@@H]3NC(=O)[C@H](Cc4c[nH]c5ccccc45)NC(=O)[C@@H]4C[C@@H](O)CN4C(=O)[C@H](CC(C)C)NC(=O)[C@H](CNCc4ccc(cc4F)B(O)OC(=O)Cn4cc(c5ccccc54)C[C@H](NC3=O)C(=O)N1C)NC(=O)[C@@H]1CCCN1C(=O)[C@H](CC(N)=O)NC(=O)[C@H](C)N(C)C2=O` [Example 1028] was 4.6 nM.
With `CCCC[C@H]1C(=O)N(C)[C@@H](CCCC)C(=O)N[C@@H](CC(C)C)C(=O)N[C@H](C(=O)NCC(N)=O)CSCC(=O)N[C@H]2Cc3ccc(cc3)OB(O)c3ccc(c(C(F)(F)F)c3)CNCC[C@@H]3NC(=O)[C@H](Cc4c[nH]c5ccccc45)NC(=O)[C@@H]4C[C@@H](O)CN4C(=O)[C@H](CC(C)C)NC(=O)[C@H](CNCc4ccc(cc4C(F)(F)F)B(O)OC(=O)Cn4cc(c5ccccc54)C[C@H](NC3=O)C(=O)N1C)NC(=O)[C@@H]1CCCN1C(=O)[C@H](CC(N)=O)NC(=O)[C@H](C)N(C)C2=O` [Example 1030] the figure was 11 nM; with `CCCC[C@H]1C(=O)N(C)[C@@H](CCCC)C(=O)N[C@@H](CC(C)C)C(=O)N[C@H](C(=O)NCC(N)=O)CSCC(=O)N[C@H]2Cc3ccc(cc3)OB(O)c3cc(F)c(F)cc3CNCC[C@@H]3NC(=O)[C@H](Cc4c[nH]c5ccccc45)NC(=O)[C@@H]4C[C@@H](O)CN4C(=O)[C@H](CC(C)C)NC(=O)[C@H](CNCc4cc(F)c(F)cc4B(O)OC(=O)Cn4cc(c5ccccc54)C[C@H](NC3=O)C(=O)N1C)NC(=O)[C@@H]1CCCN1C(=O)[C@H](CC(N)=O)NC(=O)[C@H](C)N(C)C2=O` [Example 1031], 10 nM.
Regarding `CCCC[C@H]1C(=O)N(C)[C@@H](CCCC)C(=O)N[C@@H](CC(C)C)C(=O)N[C@H](C(=O)NCC(N)=O)CSCC(=O)N[C@@H](Cc2ccc(O)cc2)C(=O)N(C)[C@@H](C)C(=O)N[C@@H](CC(N)=O)C(=O)N2CCC[C@H]2C(=O)N[C@@H](CNCc2ccc(OC)c(B(O)O)c2)C(=O)N[C@@H](CC(C)C)C(=O)N2C[C@H](O)C[C@H]2C(=O)N[C@@H](Cc2c[nH]c3ccccc23)C(=O)N[C@@H](CCNCc2ccc(OC)c(B(O)O)c2)C(=O)N[C@@H](Cc2cn(CC(=O)O)c3ccccc23)C(=O)N1C` [Example 1032] ({CH2CO}-Y[NMeA]NP[X10]L[Hyp]W[X11][Trp(1-CH2COOH)][NMeNle][NMeNle]LCG-NH2; thioether N-14), the IC50 was found to be 5.9 nM.
With `CCCC[C@H]1C(=O)N(C)[C@@H](CCCC)C(=O)N[C@@H](CC(C)C)C(=O)N[C@H](C(=O)NCC(N)=O)CSCC(=O)N[C@@H](Cc2ccc(O)cc2)C(=O)N(C)[C@@H](C)C(=O)N[C@@H](CC(N)=O)C(=O)N2CCC[C@H]2C(=O)N[C@H]2CNCc3ccc(cc3Cl)B(O)OC(=O)Cn3cc(c4ccccc43)C[C@H](NC(=O)[C@H](CCNCc3ccc(B(O)O)cc3Cl)NC(=O)[C@H](Cc3c[nH]c4ccccc34)NC(=O)[C@@H]3C[C@@H](O)CN3C(=O)[C@H](CC(C)C)NC2=O)C(=O)N1C` [Example 1033] ({CH2CO}-Y[NMeA]NP[X8]L[Hyp]W[X9][Trp(1-CH2CO)][NMeNle][NMeNle]LCG-NH2; ester 5-10; thioether N-14) the figure was 9 nM; with `CCCC[C@H]1C(=O)N(C)[C@@H](CCCC)C(=O)N[C@@H](CC(C)C)C(=O)N[C@H](C(=O)NCC(N)=O)CSCC(=O)N[C@H]2Cc3ccc(cc3)OB(O)c3ccc(nc3)CNCC[C@@H]3NC(=O)[C@H](Cc4c[nH]c5ccccc45)NC(=O)[C@@H]4C[C@@H](O)CN4C(=O)[C@H](CC(C)C)NC(=O)[C@H](CNCc4ccc(cn4)B(O)OC(=O)Cn4cc(c5ccccc54)C[C@H](NC3=O)C(=O)N1C)NC(=O)[C@@H]1CCCN1C(=O)[C@H](CC(N)=O)NC(=O)[C@H](C)N(C)C2=O` [Example 1034], 11 nM.
